The text below walks through data of patent publication US12065654B2, “Plants having increased tolerance to herbicides” (BASF SE, priority 2014, dated 2024).

By kcat is commonly meant the number of substrate molecules converted per active site and unit of time at saturation. One may read the Km as the concentration of substrate that gives half-maximal velocity.

Assay [1] has as its target T1, Arabidopsis HPPD (SEQ ID NO:53) (Arabidopsis thaliana, UniProt P93836).
T1 construct: His6 (N); made in house; host or cells: E. coli BL21 (DE3)
T1 sequence (P93836 1-445): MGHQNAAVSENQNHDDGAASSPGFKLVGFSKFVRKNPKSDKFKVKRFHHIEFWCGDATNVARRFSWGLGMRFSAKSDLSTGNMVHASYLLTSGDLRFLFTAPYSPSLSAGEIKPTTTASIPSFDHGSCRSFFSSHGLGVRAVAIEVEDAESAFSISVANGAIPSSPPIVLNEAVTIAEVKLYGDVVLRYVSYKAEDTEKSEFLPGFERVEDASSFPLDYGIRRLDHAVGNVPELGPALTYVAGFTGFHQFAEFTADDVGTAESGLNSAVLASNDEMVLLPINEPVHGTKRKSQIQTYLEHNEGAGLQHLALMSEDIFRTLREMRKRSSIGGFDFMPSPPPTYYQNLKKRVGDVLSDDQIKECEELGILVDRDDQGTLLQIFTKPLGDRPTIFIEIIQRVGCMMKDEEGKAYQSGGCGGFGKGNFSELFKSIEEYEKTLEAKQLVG
As to the kind of experiment: HPPD activity assay (HPLC of homogentisic acid). The assay is classed as biochemical. Conditions: Arabidopsis HPPD. The protocol: (§1) The activity assay for HPPD is based on the analysis of homogentisic acid by reversed phase HPLC.
(§2) The assay mixture can contain 150 mM potassium phosphate buffer pH 7.0, 50 mM L-ascorbic acid, 100 μM Catalase (Sigma-Aldrich), 1 μM FeSO4 and 0.2 units of purified HPPD enzyme in a total volume of 505 μl. 1 unit is defined as the amount of enzyme that is required to produce 1 nmol of HGA per minute at 20° C.
(§3) The reaction is allowed to proceed for 45 min at room temperature. The reaction is stopped by the addition of 50 μl of 4.5 M phosphoric acid. The sample is filtered using a […] pore size PVDF filtration device. 5 μl of the cleared sample is analyzed on an UPLC HSS T3 column (particle size 1.8 μm, dimensions 2, 1×50 mm; Waters) by isocratic elution using 90% 20 mM NaH2PO4 pH 2.2, 10% methanol (v/v).
(§4) HGA is detected electrochemically at 750 mV (mode: DC; polarity: positive) and quantified by integrating peak areas (Empower software; Waters).
(§5) Inhibitors are dissolved in DMSO (dimethylsulfoxide) to a concentration of 0.5 mM. From this stock solution serial five-fold dilutions are prepared in DMSO, which are used in the assay. The respective inhibitor solution accounts for 1% of the assay volume. Thus, final inhibitor concentrations range from 5 μM to 320 pM, respectively. Activities are normalized by setting the uninhibited enzyme activity to 100%. IC50 values are calculated using non-linear regression.
(§6) Using methods which are described in the above examples or well known in the art, purified recombinant wild-type HPPD enzymes are characterized with respect to their kinetic properties and sensitivity towards HPPD inhibiting herbicides. Apparent michaelis constants (Km) and maximal reaction velocities (Vmax) are calculated by non-linear regression with the software GraphPad Prism 5 (GraphPad Software, La Jolla, USA) using a substrate inhibition model. […] Weighted means (by standard error) of Km and IC50 values are calculated from at least three independent experiments. The Cheng-Prusoff equation for competitive inhibition (Cheng, Y. C.; Prusoff, W. H. Biochem Pharmacol 1973, 22, 3099-3108) is used to calculate dissociation constants (Ki).
(§7) Field performance of the HPPD enzyme, which is used as a herbicide tolerance trait may depend not only on its lack of sensitivity towards HPPD inhibiting herbicides but also on its activity. To assess the potential performance of a herbicide tolerance trait a tolerance index (TI) is calculated using the following formula: […]
(§8) Easy comparison and ranking of each trait is enabled by normalizing tolerance indexes on Arabidopsis wild-type HPPD.

For assay [2], the target named is T2, Hordeum HPPD (SEQ ID NO:2) (Hordeum vulgare, UniProt O48604, A164G/R146V/R147D/R148G).
T2 construct: His-tag (N); made in house; host or cells: E. coli BL21 (DE3)
T2 sequence (O48604 whole entry R146V/R147D/R148G/A164G): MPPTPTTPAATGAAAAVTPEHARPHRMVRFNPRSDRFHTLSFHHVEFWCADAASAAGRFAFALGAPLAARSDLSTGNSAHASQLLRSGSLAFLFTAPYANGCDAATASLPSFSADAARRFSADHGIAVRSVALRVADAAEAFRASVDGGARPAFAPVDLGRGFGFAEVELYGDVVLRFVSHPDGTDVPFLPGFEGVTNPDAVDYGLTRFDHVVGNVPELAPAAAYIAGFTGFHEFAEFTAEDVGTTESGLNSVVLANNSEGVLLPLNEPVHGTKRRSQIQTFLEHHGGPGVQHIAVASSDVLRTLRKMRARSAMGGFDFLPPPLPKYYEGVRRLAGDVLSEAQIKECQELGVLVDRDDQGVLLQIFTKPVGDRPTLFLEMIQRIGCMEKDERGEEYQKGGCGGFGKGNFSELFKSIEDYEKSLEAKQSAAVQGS
As to the kind of experiment: HPPD activity assay. The note with it: Hordeum HPPD. It counts as biochemical. The protocol:
as §1, §2, §3, §4, §5, §6, §7, §8

Setting [3] is: turnover number, substrate 4-HPP.
Setting [4] is: read-out: Km [μM] (4-HPP), apparent michaelis constant.

On to `O=C(O)C(=O)Cc1ccc(O)cc1` [Inhibitor 4-HPP, 4-hydroxyphenylpyruvate], for which the catalytic constant (kcat) in assay [1] (setting [3]) is 12.9 s⁻¹; in assay [2] (setting [3]), 11.5 s⁻¹. The Km in assay [1] (setting [4]) amounted to 13 µM; in assay [2] (setting [4]), 26 µM.
